One assay has as its target JAK3 (a.a. 781-1124) (Homo sapiens (Human), UniProt P52333). The assay is described as follows: JAK3 enzyme activity assay (SRCtide phosphorylation, Caliper). Format: biochemical. The note with it: 2.5 nM JAK3, 1 μM SRCtide, 1 uM ATP, 40 minutes; read-out: JAK3 Inhibition IC50. The essentials:
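2.5 nM JAK3 kinase domain with 1 μM FAM-SRCtide and 1 μM ATP in 20 mM HEPES pH 7.5, 10 mM MgCl2, 2% DMSO, 40 min at room temperature, EDTA stop. Phospho/unphospho peptide separated by mobility shift; 11-point 3-fold series in duplicate, 4-parameter logistic IC50.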

In assay [1] the test system is IL-2 stimulated STAT5 phosphorylation on Tyr694 (JAK1/3). The experiment in a line: JAK1/3 cellular target modulation: IL-2 stimulated phospho-STAT5 in PBMC. Format: cell-based. The settings on record: Homo sapiens, PBMC, IL-2 25 ng/ml, 1 hour compound preincubation, read-out: IL2-STAT5 Inhibition IC50. The gist of the method:
(§1)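 Thawed human PBMC (200,000/well) in complete RPMI/10% FBS preincubated with compound 1 h at 37 °C, then stimulated with IL-2 25 ng/ml for 5 min (pSTAT5 Tyr694) or IFNγ 10 ng/ml for 10 min (pSTAT1 Tyr701). Cells lysed; pSTAT5 by MSD Tyr694/total STAT5a,b assay, pSTAT1 by sandwich ELISA.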

Assay [2] has as its system IFNγ stimulated STAT1 phosphorylation on Tyr701 (JAK1/2). The experiment in a line: JAK1/2 cellular target modulation: IFNγ stimulated phospho-STAT1 in PBMC. Format: cell-based. The note with it: Homo sapiens, PBMC, IFNγ 10 ng/ml, 1 hour compound preincubation, read-out: Infγ-STAT1 IC50. The essentials: as §1
In the next assay the target is JAK1 (Homo sapiens (Human), UniProt P23458). The experiment in a line: JAK1 enzyme activity assay (Thermo Fisher SelectScreen Z-lyte). Format: biochemical. The note with it: 1 hour kinase reaction, read-out: JAK1 Inhibition IC50. The gist of the method:
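Z-lyte FRET assay with 21.2-91.5 ng JAK1 and 2 μM Tyr 06 peptide in 50 mM HEPES pH 7.0 with 10 mM MgCl2, reacted 1 hour before development reagent. Compounds tested in an 11-point dose-response from […] to 0.34 nM. IC50 from 4-parameter logistic fit of emission ratio.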

A word on the IC50: it is the concentration needed to halve the response being measured.

Sequence of JAK1 (P23458 whole entry): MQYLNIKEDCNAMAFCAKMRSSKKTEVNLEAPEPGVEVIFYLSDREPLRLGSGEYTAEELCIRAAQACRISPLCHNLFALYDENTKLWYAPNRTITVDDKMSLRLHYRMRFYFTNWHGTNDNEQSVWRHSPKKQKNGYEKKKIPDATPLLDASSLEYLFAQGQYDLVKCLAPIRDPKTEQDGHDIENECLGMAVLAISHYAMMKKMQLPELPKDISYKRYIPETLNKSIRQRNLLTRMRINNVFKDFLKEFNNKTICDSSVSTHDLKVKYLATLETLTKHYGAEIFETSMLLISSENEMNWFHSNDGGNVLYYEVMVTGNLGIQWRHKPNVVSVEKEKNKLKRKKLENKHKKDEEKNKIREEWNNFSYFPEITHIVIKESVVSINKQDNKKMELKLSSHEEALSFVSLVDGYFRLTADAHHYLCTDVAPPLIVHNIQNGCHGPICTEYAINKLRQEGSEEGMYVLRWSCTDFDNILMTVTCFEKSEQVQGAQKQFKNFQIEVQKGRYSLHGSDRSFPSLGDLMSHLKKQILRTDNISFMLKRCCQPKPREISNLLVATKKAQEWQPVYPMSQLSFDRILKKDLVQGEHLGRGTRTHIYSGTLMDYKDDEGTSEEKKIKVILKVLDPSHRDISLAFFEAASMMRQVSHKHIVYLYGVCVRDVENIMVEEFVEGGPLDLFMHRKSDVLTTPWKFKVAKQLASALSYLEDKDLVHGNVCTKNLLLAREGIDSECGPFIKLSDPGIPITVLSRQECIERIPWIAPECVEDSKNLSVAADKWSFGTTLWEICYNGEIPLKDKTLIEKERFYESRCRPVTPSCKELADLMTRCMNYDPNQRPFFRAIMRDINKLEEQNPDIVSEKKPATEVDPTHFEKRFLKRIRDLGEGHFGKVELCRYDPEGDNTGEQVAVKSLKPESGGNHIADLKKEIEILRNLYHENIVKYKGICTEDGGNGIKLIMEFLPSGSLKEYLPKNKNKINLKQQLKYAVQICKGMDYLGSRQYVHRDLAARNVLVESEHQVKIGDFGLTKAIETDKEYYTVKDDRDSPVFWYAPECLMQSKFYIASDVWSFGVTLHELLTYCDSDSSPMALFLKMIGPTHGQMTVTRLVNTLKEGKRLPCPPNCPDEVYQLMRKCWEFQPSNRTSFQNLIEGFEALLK
Sequence of JAK3 (a.a. 781-1124) (P52333 781-1124): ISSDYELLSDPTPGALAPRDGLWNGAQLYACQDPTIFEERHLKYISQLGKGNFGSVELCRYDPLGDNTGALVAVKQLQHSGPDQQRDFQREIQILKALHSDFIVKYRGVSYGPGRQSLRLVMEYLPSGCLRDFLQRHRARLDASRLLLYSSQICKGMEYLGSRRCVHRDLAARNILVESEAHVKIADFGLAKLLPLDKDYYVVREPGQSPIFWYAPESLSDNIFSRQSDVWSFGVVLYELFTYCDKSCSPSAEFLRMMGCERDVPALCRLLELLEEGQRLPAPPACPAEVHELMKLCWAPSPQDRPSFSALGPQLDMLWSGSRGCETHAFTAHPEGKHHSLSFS

With `CCCOC(=O)c1cnc2[nH]ccc2c1N[C@@H]1CCCN(C(=O)CC#N)C1` [Example 130, propyl (R)-4-((1-(2-cyanoacetyl)piperidin-3-yl)amino)-1H-pyrrolo[2,3-b]pyridine-5-carboxylate], the IC50 is at most 10 nM at JAK3 (a.a. 781-1124), 100 to 1000 nM in assay [1], 100 to 1000 nM in assay [2] and at most 10 nM on JAK1.
As to `COC(=O)c1cnc2[nH]ccc2c1N[C@H]1CN(C(=O)CC#N)CC[C@H]1C` [Example 118, methyl 4-(((3R,4R)-1-(2-cyanoacetyl)-4-methylpiperidin-3-yl)amino)-1H-pyrrolo[2,3-b]pyridine-5-carboxylate], the IC50 is 10 to 100 nM on JAK3 (a.a. 781-1124), at most 100 nM in assay [1], 100 to 1000 nM in assay [2] and at most 10 nM on JAK1.
Regarding `C=CC(=O)N1CCC[C@@H](Nc2c(C(=O)OCC)cnc3[nH]ccc23)C1` [Example 34, ethyl (R)-4-((1-acryloylpiperidin-3-yl)amino)-1H-pyrrolo[2,3-b]pyridine-5-carboxylate], the IC50 on JAK3 (a.a. 781-1124) is 100 to 1000 nM; in assay [1] it was 100 to 1000 nM; in assay [2], over 1000 nM; at JAK1, 100 to 1000 nM.
Turning to `N#CCC[C@H]1CCC[C@H](Nc2c(C(=O)O)cnc3[nH]ccc23)C1` [Example 147, 4-(((1S,3R)-3-(2-cyanoethyl)cyclohexyl)amino)-1H-pyrrolo[2,3-b]pyridine-5-carboxylic acid], the IC50 is 100 to 1000 nM at JAK3 (a.a. 781-1124), 100 to 1000 nM in assay [1], over 1000 nM in assay [2] and 100 to 1000 nM at JAK1.
Consider `CCOC(=O)c1cnc2[nH]ccc2c1N[C@H]1CC[C@H](CS(=O)(=O)NC)CC1` [Example 92, ethyl 4-(((1r,4r)-4-((N-methylsulfamoyl)methyl)cyclohexyl)amino)-1H-pyrrolo[2,3-b]pyridine-5-carboxylate], for which the IC50 was at most 10 nM on JAK3 (a.a. 781-1124), at most 100 nM in assay [1], 100 to 1000 nM in assay [2] and at most 10 nM on JAK1.
For the compound `CCCOC(=O)c1cnc2[nH]ccc2c1N[C@H]1CN(C(=O)CC#N)CC[C@H]1C` [Example 125, propyl 4-(((3R,4R)-1-(2-cyanoacetyl)-4-methylpiperidin-3-yl)amino)-1H-pyrrolo[2,3-b]pyridine-5-carboxylate], the IC50 on JAK3 (a.a. 781-1124) was at most 10 nM; in assay [1] it was at most 100 nM; in assay [2] it was 100 to 1000 nM; at JAK1, at most 10 nM.
With `CCOC(=O)c1cnc2[nH]ccc2c1NC1CCC(O)C(CC#N)C1` (stereo not drawn) [Example 142, ethyl 4-((3-(cyanomethyl)-4-hydroxycyclohexyl)amino)-1H-pyrrolo[2,3-b]pyridine-5-carboxylate], the IC50 on JAK3 (a.a. 781-1124) was 10 to 100 nM; in assay [1], at most 100 nM; in assay [2], 100 to 1000 nM; at JAK1, at most 10 nM.
In the same order, the values of `CCOC(=O)c1cnc2[nH]ccc2c1N[C@@H]1CCCN(C(=O)CC#N)C1` [Example 117, ethyl (R)-4-((1-(2-cyanoacetyl)piperidin-3-yl)amino)-1H-pyrrolo[2,3-b]pyridine-5-carboxylate] are at most 10 nM, at most 100 nM, at most 100 nM and at most 10 nM.
On the same counts, the results for `COC(=O)c1cnc2[nH]ccc2c1N[C@H]1CCC[C@H](CCC#N)C1` (racemic) [Example 151, trans-racemic-methyl 4-((3-(2-cyanoethyl)cyclohexyl)amino)-1H-pyrrolo[2,3-b]pyridine-5-carboxylate] are at most 10 nM, at most 100 nM, 100 to 1000 nM and at most 10 nM.

For the origin of these results see US10981906B2, “Substituted pyrrolopyridine JAK inhibitors and methods of making and using the same” (ACLARIS THERAPEUTICS, INC., priority 2017, dated 2021).
